Measurements taken from patent US10730875B2, “Substituted imidazo[1,2-A]pyridin-2-ylamine compounds, and pharmaceutical compositions and methods of use thereof” (JN Therapeutics, priority 2015, dated 2020).

What was measured:
Type in all cases: biochemical
[1] = target: human Janus kinase 2 (JAK2), recombinant catalytic domain (Homo sapiens (Human), UniProt O60674); assay: LanthaScreen TR-FRET enzymatic assay, JAK2
Summary of the method: (§1)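 Insect-cell-expressed catalytic domains (JAK1 aa 866-1154, 440 ng/mL; JAK2 aa 808-1132, 11 ng/mL; JAK3 aa 781-1124, 400 ng/mL; TYK2 aa 833-1187, 200 ng/mL) preincubated 15 min with compound, then reacted 1 h at room temperature with 100 nM GFP-STAT1 and 1 mM ATP. pTyr701 detected by TR-FRET (terbium antibody); IC50 from 10-dose sigmoid fits.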

[2] = target: human Janus kinase 1 (JAK1), recombinant catalytic domain (Homo sapiens (Human), UniProt P23458); assay: LanthaScreen TR-FRET enzymatic assay, JAK1; conditions: 1 mM ATP, GFP-STAT1 substrate, read-out: Inhibitory Activity IC50 JAK1
Summary of the method: as §1

[3] = tested on: human tyrosine kinase 2 (TYK2), recombinant catalytic domain; assay: LanthaScreen TR-FRET enzymatic assay, TYK2; conditions: ratio of IC50 against TYK2 over IC50 against JAK1
Summary of the method: as §1

[4] = target: human tyrosine kinase 2 (TYK2), recombinant catalytic domain (Homo sapiens (Human), UniProt P29597); assay: LanthaScreen TR-FRET enzymatic assay, TYK2; conditions: TR-FRET, 1 mM ATP, GFP-STAT1 substrate; read-out: Inhibitory Activity IC50 TYK2
Summary of the method: as §1

Chain of human Janus kinase 2 (JAK2), recombinant catalytic domain (O60674 808-1132): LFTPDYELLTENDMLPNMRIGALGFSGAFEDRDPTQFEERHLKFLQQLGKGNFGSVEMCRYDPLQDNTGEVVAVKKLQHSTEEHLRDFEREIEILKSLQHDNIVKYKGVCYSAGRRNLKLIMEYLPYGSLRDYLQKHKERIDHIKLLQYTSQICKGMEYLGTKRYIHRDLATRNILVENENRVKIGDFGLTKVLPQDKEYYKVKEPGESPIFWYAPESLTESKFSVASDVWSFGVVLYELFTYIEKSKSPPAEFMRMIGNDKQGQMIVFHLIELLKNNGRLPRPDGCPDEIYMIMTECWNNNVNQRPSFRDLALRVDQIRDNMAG
Chain of human tyrosine kinase 2 (TYK2), recombinant catalytic domain (Homo sapiens (Human), UniProt P29597) (P29597 833-1187): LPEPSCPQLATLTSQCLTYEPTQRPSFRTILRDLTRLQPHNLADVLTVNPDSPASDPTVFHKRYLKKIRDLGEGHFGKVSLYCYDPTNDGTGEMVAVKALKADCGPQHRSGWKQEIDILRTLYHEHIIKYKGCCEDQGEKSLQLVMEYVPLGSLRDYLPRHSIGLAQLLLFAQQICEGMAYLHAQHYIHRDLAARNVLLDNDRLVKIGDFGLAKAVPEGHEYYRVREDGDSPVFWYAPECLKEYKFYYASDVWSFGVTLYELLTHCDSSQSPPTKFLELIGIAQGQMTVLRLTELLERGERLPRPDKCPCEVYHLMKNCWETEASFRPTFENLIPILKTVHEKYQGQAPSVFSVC
Chain of human Janus kinase 1 (JAK1), recombinant catalytic domain (P23458 866-1154): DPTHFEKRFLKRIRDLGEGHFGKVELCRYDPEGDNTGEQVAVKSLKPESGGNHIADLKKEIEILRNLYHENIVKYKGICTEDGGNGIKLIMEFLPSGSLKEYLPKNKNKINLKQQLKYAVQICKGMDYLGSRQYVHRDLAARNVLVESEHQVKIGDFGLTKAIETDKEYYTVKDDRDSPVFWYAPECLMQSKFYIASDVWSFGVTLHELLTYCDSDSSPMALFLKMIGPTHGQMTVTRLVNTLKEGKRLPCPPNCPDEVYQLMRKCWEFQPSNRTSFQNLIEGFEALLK

IC50 ([1]; TR-FRET, 1 mM ATP, GFP-STAT1 substrate, read-out: Inhibitory Activity IC50 JAK2): 1 to 5 µM | IC50 [2]: ≤ 0.5 µM | IC50 [4]: 1 to 5 µM
Compound: O=C(Nc1cn2c(-c3ccc(CN4CCS(=O)(=O)CC4)cc3F)cccc2n1)C1CC1 [Compound 14]
Selectivity JAK2/JAK1 ([1]; ratio of IC50 against JAK2 over IC50 against JAK1): A′ (A′ represents a ratio of greater than 8) | Selectivity TYK2/JAK1 [3]: A′ (A′ represents a ratio of greater than 8)
